Results from PubChem BioAssay (NCI).
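Test compounds were applied to cells in 96-well plates for 48 hours at 5 doses. GI50 marks 50% less growth. At the TGI there is no net growth.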

Legend:
Test in all cases: NCI-60 cell line screen, 48 h
SF-268 CNS = system: SF-268 CNS
HL-60(TB) leukemia = system: HL-60(TB) leukemia
LOX IMVI melanoma = system: LOX IMVI melanoma
MDA-MB-435 = system: MDA-MB-435
NCI-H460 lung = system: NCI-H460 lung
SR leukemia = system: SR leukemia
BT-549 breast = system: BT-549 breast
SK-MEL-5 melanoma = system: SK-MEL-5 melanoma
SNB-75 CNS = system: SNB-75 CNS
HOP-92 NSCLC = system: HOP-92 NSCLC
HCC-2998 colon = system: HCC-2998 colon
UO-31 renal = system: UO-31 renal
NCI-H23 lung = system: NCI-H23 lung
DU-145 prostate = system: DU-145 prostate
HT29 colon = system: HT29 colon
SK-MEL-2 melanoma = system: SK-MEL-2 melanoma
A549 NSCLC = system: A549 NSCLC
786-0 renal = system: 786-0 renal
RPMI-8226 leukemia = system: RPMI-8226 leukemia
NCI/ADR-RES ovarian = system: NCI/ADR-RES ovarian
M14 melanoma = system: M14 melanoma
IGROV1 ovarian = system: IGROV1 ovarian
HCT-15 colon = system: HCT-15 colon
U251 CNS = system: U251 CNS
MCF7 breast = system: MCF7 breast
MALME-3M melanoma = system: MALME-3M melanoma
SNB-19 CNS = system: SNB-19 CNS
KM12 colon = system: KM12 colon
TK-10 renal = system: TK-10 renal

Which results are given for `Cc1c(-c2ccc(N3CCc4cccc(C(=O)Nc5nc6ccccc6s5)c4C3)nc2C(=O)O)cnn1CC12CC3CC(CC(C3)C1)C2`?
TGI (SF-268 CNS): 24.8 µM; GI50 (HL-60(TB) leukemia): 3.43 µM; TGI (HL-60(TB) leukemia): 18.7 µM; GI50 (LOX IMVI melanoma): 5.92 µM; TGI (LOX IMVI melanoma): 23.4 µM; GI50 (MDA-MB-435): 6.77 µM; TGI (MDA-MB-435): 28.3 µM; GI50 (NCI-H460 lung): 8.22 µM; TGI (NCI-H460 lung): 24.6 µM; GI50 (SR leukemia): 12.8 µM; TGI (SR leukemia): > 57.4 µM; GI50 (BT-549 breast): 3.73 µM; TGI (BT-549 breast): 16.4 µM; GI50 (SK-MEL-5 melanoma): 2.79 µM; TGI (SK-MEL-5 melanoma): 9.79 µM; GI50 (SNB-75 CNS): 9.35 µM; TGI (SNB-75 CNS): 36.8 µM; GI50 (HOP-92 NSCLC): < 0.01 µM; TGI (HOP-92 NSCLC): < 0.01 µM; GI50 (HCC-2998 colon): < 0.0329 µM; TGI (HCC-2998 colon): 1.34 µM; GI50 (UO-31 renal): 2.6 µM; TGI (UO-31 renal): 9.36 µM; GI50 (NCI-H23 lung): 13.4 µM; TGI (NCI-H23 lung): 35.4 µM; GI50 (DU-145 prostate): 15.2 µM; TGI (DU-145 prostate): 29.1 µM; GI50 (HT29 colon): 7.79 µM; TGI (HT29 colon): 25.3 µM; GI50 (SK-MEL-2 melanoma): 3.1 µM; TGI (SK-MEL-2 melanoma): 20.5 µM; GI50 (A549 NSCLC): 4.97 µM; TGI (A549 NSCLC): 25.3 µM; GI50 (786-0 renal): 3.65 µM; TGI (786-0 renal): 12.4 µM; GI50 (RPMI-8226 leukemia): < 0.0177 µM; TGI (RPMI-8226 leukemia): 2.86 µM; GI50 (NCI/ADR-RES ovarian): 14.7 µM; TGI (NCI/ADR-RES ovarian): 38 µM; GI50 (M14 melanoma): 7.7 µM; TGI (M14 melanoma): 25.4 µM; GI50 (IGROV1 ovarian): 12.6 µM; TGI (IGROV1 ovarian): 31.5 µM; GI50 (HCT-15 colon): 6.08 µM; TGI (HCT-15 colon): 19.9 µM; GI50 (U251 CNS): 7.04 µM; TGI (U251 CNS): 30.2 µM; GI50 (MCF7 breast): 10.8 µM; TGI (MCF7 breast): 29.4 µM; GI50 (MALME-3M melanoma): 14.3 µM; TGI (MALME-3M melanoma): 33.7 µM; GI50 (SNB-19 CNS): 4.37 µM; TGI (SNB-19 CNS): 19.6 µM; GI50 (KM12 colon): 4.97 µM; TGI (KM12 colon): 20.6 µM; GI50 (TK-10 renal): 2.99 µM; TGI (TK-10 renal): 13.5 µM
